Experimental data taken from patent US9944641B2, “Isoquinolinone derivatives useful in the treatment of cancer” (PIERRE FABRE MEDICAMENT, priority 2014, dated 2018).

How the values were obtained:
FLT3 D835Y = target: T1, FLT3 D835Y (Homo sapiens, UniProt P36888, D835Y); assay: Lanthascreen TR-FRET enzymatic assay, FLT3 D835Y; format: binding; details: 1 hour at 25° C., 1% DMSO, read-out: Enzymology (IC50) FLT3 D835Y
T1 construct: purchased Merck Millipore 14-610
T1 sequence (P36888 27-993 D835Y): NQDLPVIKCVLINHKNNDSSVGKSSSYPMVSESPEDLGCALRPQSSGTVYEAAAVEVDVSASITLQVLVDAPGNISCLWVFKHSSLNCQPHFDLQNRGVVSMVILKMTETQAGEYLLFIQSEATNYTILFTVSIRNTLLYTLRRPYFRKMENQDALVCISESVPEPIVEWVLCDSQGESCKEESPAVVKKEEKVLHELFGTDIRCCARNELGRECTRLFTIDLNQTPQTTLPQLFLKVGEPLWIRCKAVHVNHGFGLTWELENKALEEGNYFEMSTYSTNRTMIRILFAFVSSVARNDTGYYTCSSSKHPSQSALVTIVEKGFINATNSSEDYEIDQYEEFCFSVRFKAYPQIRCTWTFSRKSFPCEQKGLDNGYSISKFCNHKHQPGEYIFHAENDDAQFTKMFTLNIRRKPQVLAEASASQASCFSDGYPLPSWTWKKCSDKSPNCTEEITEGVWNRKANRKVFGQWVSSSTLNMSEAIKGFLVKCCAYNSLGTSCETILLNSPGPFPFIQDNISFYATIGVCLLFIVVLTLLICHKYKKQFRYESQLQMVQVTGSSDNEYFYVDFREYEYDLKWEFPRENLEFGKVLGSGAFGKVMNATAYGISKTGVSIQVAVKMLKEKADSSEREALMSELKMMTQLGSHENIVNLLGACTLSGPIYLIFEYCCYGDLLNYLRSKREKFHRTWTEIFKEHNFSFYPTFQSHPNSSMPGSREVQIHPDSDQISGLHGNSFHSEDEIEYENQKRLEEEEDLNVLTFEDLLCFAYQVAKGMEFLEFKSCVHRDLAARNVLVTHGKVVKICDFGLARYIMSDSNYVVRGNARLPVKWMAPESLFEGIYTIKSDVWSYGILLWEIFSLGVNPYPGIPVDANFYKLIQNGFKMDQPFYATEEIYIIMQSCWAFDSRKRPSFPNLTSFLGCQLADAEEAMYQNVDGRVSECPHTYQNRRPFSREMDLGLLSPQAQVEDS
Experimental: (§1) Recombinant FLT3 (#PV3182), JAK2 (#PV4210) and JAK3 (#PV3855) enzymes were purchased from Life Technologies. FLT3-ITD (#0778-0000-1) and FLT3^D835Y (#14-610) were respectively purchased from Proquinase and Merck Millipore.
(§2) The assays were conducted in 384-well plates based on Life Technologies Lanthascreen® TR-FRET methodologies.
(§3) FLT3-ITD or FLT3^D835Y assays: 15 nM of FLT3-ITD or FLT3^D835Y, 3 nM of the 236 kinase tracker (Life Technologies #PV5592) and 6 nM of the Europium-tagged anti-GST Lanthascreen® antibody are mixed into 15 μL total volume reaction mixture.
(§4) IC50s were determined from a 8-point dose-response curve spanning a >1000 fold concentration range using a 10 mM compound solution stock into pure DMSO (Sigma #D8418). The overall DMSO concentrations of tested solutions were 1%.
(§5) IC50s were generated with the software Prism (Graphpad).

FLT3-ITD = target: T2, FLT3-ITD (Homo sapiens, UniProt P36888); assay: Lanthascreen TR-FRET enzymatic assay, FLT3-ITD; format: binding; details: 1 hour at 25° C., 1% DMSO, read-out: Enzymology (IC50) FLT3-ITD
T2 construct: fused on or other part: GST tag (detected with the Europium-tagged anti-GST antibody)
T2 sequence (P36888 1-993): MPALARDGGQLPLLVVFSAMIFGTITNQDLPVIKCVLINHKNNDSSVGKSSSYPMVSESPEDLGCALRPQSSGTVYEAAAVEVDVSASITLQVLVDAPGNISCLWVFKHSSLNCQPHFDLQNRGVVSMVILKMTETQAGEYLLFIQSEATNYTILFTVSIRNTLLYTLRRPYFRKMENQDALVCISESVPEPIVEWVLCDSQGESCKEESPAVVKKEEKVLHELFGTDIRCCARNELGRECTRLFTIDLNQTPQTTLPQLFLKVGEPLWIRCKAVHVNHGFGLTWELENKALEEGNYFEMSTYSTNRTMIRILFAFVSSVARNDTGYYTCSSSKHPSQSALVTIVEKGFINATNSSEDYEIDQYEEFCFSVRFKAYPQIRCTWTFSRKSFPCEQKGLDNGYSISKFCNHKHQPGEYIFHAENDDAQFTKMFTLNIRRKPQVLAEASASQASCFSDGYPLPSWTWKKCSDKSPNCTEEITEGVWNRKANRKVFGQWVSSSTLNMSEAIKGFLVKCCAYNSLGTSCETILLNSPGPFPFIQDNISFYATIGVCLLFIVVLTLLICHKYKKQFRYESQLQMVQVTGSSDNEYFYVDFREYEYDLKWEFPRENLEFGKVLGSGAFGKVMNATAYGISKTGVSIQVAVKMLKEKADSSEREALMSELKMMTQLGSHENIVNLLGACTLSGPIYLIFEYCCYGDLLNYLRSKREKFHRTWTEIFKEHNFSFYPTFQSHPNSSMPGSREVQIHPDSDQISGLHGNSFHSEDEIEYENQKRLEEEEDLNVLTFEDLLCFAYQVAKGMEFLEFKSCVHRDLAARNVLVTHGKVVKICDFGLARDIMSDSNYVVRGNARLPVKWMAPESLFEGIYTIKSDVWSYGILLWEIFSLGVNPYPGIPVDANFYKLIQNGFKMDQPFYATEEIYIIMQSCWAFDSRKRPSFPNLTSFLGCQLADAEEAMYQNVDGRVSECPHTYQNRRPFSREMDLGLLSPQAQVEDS
Experimental: as §1, §2, §3, §4, §5

MOLM-13 cells = assay: Antiproliferative activity assay (ATPLite), MOLM-13; format: cell-based; details: Homo sapiens, MOLM-13 (AML, FLT3-ITD), 72 h, read-out: Inhibition of proliferation (EC50) MOLM13
Experimental: (§6) Cell lines MV4-11 and MOLM-13 are grown according to conditions depicted in Table 2 following the provider recommendations.
(§7) Assays are being run into 96-well plates. Cells are passaged at Day 0, seeded at Day 1 and added with increasing quantities of the compounds to evaluate. Plates are incubated for 72 h at 37° C. under a 5% CO2 atmosphere.
(§8) Half-logarithmic dilutions from compounds stock solutions in DMSO (Sigma #D8414) were done in order to obtain 0.1% DMSO solutions.
(§9) Cellular viability is measured at Day 4 with the ATPLite (Perkin Elmer #6016947) kit.

MV4-11 cells = assay: Antiproliferative activity assay (ATPLite), MV4-11; format: cell-based; details: Homo sapiens, MV4-11 (AML, FLT3-ITD), 72 h, read-out: Inhibition of proliferation (EC50) MV411
Experimental: as §6, §7, §8, §9

Row | IC50 (FLT3 D835Y) [nM] | IC50 (FLT3-ITD) [nM] | EC50 (MOLM-13 cells) [nM] | EC50 (MV4-11 cells) [nM] | SMILES
1 | 25 to 100 | 25 to 100 | 25 to 100 | 25 to 100 | COc1cc2c(cc1N)c(=O)n(C)c1cnc(Nc3cc(N)cc(F)c3)nc21 [Compound C26, 8-amino-2-((3-amino-5-fluorophenyl)amino)-9-methoxy-5-methylpyrimido [5,4-c]isoquinolin-6(5H)-one]
2 | < 25 | < 25 | 100 to 1000 | < 25 | COc1cc2c(cc1N)c(=O)n(C)c1cnc(Nc3ccc(N4CCN(C)CC4)cc3)nc21 [Compound C10, 8-amino-9-methoxy-5-methyl-2-((4-(4-methylpiperazin-1-yl)phenyl)amino) pyrimido[5,4-c]isoquinolin-6(5H)-one]
3 | < 25 | < 25 | 25 to 100 | 25 to 100 | CN1CCN(c2cccc(Nc3ncc4c(n3)c3ccc(N)cc3c(=O)n4C)c2)CC1 [Compound C6, 8-amino-5-methyl-2-((3-(4-methylpiperazin-1-yl)phenyl)amino)pyrimido[5,4-c]isoquinolin-6(5H)-one]
4 | 25 to 100 | < 25 | 100 to 1000 | 25 to 100 | COc1cc2c(cc1N)c(=O)n(C)c1cnc(Nc3ccc(F)c(N)c3)nc21 [Compound C28, 8-amino-2-((3-amino-4-fluorophenyl)amino)-9-methoxy-5-methylpyrimido [5,4-c]isoquinolin-6(5H)-one]
5 | < 25 | < 25 | 100 to 1000 | 100 to 1000 | Cn1c(=O)c2cc(N)ccc2c2nc(Nc3ccc(F)c(N)c3)ncc21 [Compound C22, 8-amino-2-((3-amino-4-fluorophenyl)amino)-5-methylpyrimido[5,4-c]isoquinolin-6(5H)-one]
6 | < 25 | < 25 | 100 to 1000 | 100 to 1000 | COc1cc2c(cc1N)c(=O)n(C)c1cnc(Nc3ccc(OCCN4CCCC4)cc3)nc21 [Compound C42, 8-amino-9-methoxy-5-methyl-2-((4-(2-(pyrrolidin-1-yl)ethoxy)phenyl)amino) pyrimido[5,4-c]isoquinolin-6(5H)-one]
7 | < 25 | < 25 | 100 to 1000 | 100 to 1000 | Cn1c(=O)c2cc(N)ccc2c2nc(Nc3ccc(OCCN4CCCC4)cc3)ncc21 [Compound C34, 8-amino-5-methyl-2-((4-(2-(pyrrolidin-1-yl)ethoxy)phenyl)amino)pyrimido[5,4-c]isoquinolin-6(5H)-one]
8 | < 25 | < 25 | 25 to 100 | 25 to 100 | Cn1c(=O)c2cc(N)ccc2c2nc(Nc3cccc(N)c3)ncc21 [Compound C2, 8-amino-2-((3-aminophenyl)amino)-5-methylpyrimido[5,4-c]isoquinolin-6(5H)-one]
9 | < 25 | < 25 | < 25 | < 25 | CN1CCN(c2ccc(Nc3ncc4c(n3)c3ccc(N)cc3c(=O)n4C)cc2)CC1 [Compound C4, 8-amino-5-methyl-2-((4-(4-methylpiperazin-1-yl)phenyl)amino)pyrimido[5,4-c]isoquinolin-6(5H)-one]
